# Assays:
# Experiment in all cases: relative viability (nuclei count vs DMSO), 5 days (fraction); higher = more cells survive
# Silmitasertib = compound: O=C(O)c1ccc2c(c1)nc(Nc1cccc(Cl)c1)c1ccncc12 [Silmitasertib]
# Procedure, shortened: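 A plate was accepted only when its control CV was below 25% and the cells had doubled at least once. Viability is defined from nuclear counts as treated wells divided by vehicle wells, with the median taken across plates. That median covers lung cancer cell lines grown in 1536-well plates, dosed by pinning at five √10-spaced library-drug concentrations, and counted in MetaXpress from 4× Hoechst images after 5 days.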
# [1] = compound: O=C(O)c1ccc2c(c1)nc(Nc1cccc(Cl)c1)c1ccncc12 [Silmitasertib] + CC1(C)CCC(c2ccc(Cl)cc2)=C(CN2CCN(c3ccc(C(=O)NS(=O)(=O)c4ccc(N[C@H](CCN5CCOCC5)CSc5ccccc5)c(S(=O)(=O)C(F)(F)F)c4)cc3)CC2)C1 [Navitoclax] (partner 0.5 µM)
# Procedure, shortened: (§1)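 Dosing by pin tool came one day after lung cancer cell lines were seeded in 1536-well plates, using either one drug or a fixed anchor-drug dose plus five library-drug doses (not always all listed) in √10 steps. After 5 days, nuclei were counted on 4× images. Relative viability is treated-well nuclei count divided by vehicle-well nuclei count, and values are medians of duplicate plates.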
# Silmitasertib + OSI-027 = compound: O=C(O)c1ccc2c(c1)nc(Nc1cccc(Cl)c1)c1ccncc12 [Silmitasertib] + COc1cccc2cc(-c3nc([C@H]4CC[C@H](C(=O)O)CC4)n4ncnc(N)c34)[nH]c12 [OSI-027] (partner 0.5 µM)
# Procedure, shortened: as §1
# [2] = compound: O=C(O)c1ccc2c(c1)nc(Nc1cccc(Cl)c1)c1ccncc12 [Silmitasertib] + CS(=O)(=O)N1CCN(Cc2cc3nc(-c4cccc5[nH]ncc45)nc(N4CCOCC4)c3s2)CC1 [Pictilisib] (partner 1 µM)
# Procedure, shortened: as §1
# [3] = compound: O=C(O)c1ccc2c(c1)nc(Nc1cccc(Cl)c1)c1ccncc12 [Silmitasertib] + Nc1ncn([C@H]2C[C@H](O)[C@@H](CO)O2)c(=O)n1 [Decitabine] (partner 2 µM)
# Procedure, shortened: as §1
Cell Line,relative viability (Silmitasertib; 0.04 µM),relative viability (Silmitasertib; 0.4 µM),relative viability (Silmitasertib; 1.265 µM),relative viability (Silmitasertib; 4 µM),relative viability ([1]; first compound 0.04 µM),relative viability ([1]; first compound 0.4 µM),relative viability ([1]; first compound 1.265 µM),relative viability ([1]; first compound 4 µM),relative viability (Silmitasertib + OSI-027; first compound 0.04 µM),relative viability (Silmitasertib + OSI-027; first compound 0.4 µM),relative viability (Silmitasertib + OSI-027; first compound 1.265 µM),relative viability (Silmitasertib + OSI-027; first compound 4 µM),relative viability ([2]; first compound 0.04 µM),relative viability ([2]; first compound 0.4 µM),relative viability ([2]; first compound 1.265 µM),relative viability ([2]; first compound 4 µM),relative viability ([3]; first compound 0.04 µM),relative viability ([3]; first compound 0.4 µM),relative viability ([3]; first compound 1.265 µM),relative viability ([3]; first compound 4 µM)
RERF-LC-KJ,1.03,0.848,0.823,0.581,0.863,0.85,0.782,0.436,0.627,0.484,0.41,0.373,0.629,0.494,0.366,0.323,0.766,0.627,0.455,0.344
SK-LU-1,1.13,0.703,0.802,0.457,0.984,0.532,0.671,0.217,0.432,0.248,0.223,0.197,0.685,0.448,0.359,0.212,0.708,0.622,0.297,0.428
SK-MES-1,1.04,0.989,0.855,0.491,1.27,1.1,1.15,0.576,0.675,0.558,0.435,0.236,0.412,0.439,0.456,0.373,0.396,0.382,0.328,0.209
SW 1573,1.19,0.955,0.876,0.779,1.07,1.02,0.824,0.815,0.648,0.616,0.548,0.319,0.561,0.459,0.462,0.484,0.515,0.406,0.441,0.372
UMC-11,1.11,0.916,0.985,0.684,0.337,0.278,0.207,0.162,0.491,0.485,0.438,0.402,0.992,0.903,0.652,0.436,0.688,0.464,0.587,0.541
